Measured values from US20110045982A1, “HERBICIDAL COMPOSITION” (NOF CORPORATION, priority 2009, published 2011).

Tested on: Japanese white rabbits
Settings: hydrolysate of base compound, 50% in purified water, 0.1 mL instilled, three male rabbits; observed 1, 6, 12 and 24 hr
Method: Assuming that the base compound is hydrolyzed in the natural world, the biological reaction of hydrolysate was evaluated by eye irritancy. To be specific, the base compound (10 g) shown in Table 1 was added to 100 mL of water, and the mixture was adjusted to pH 10 with an aqueous sodium hydroxide solution. The mixture was placed in a flask, heated to 80° C., and stirred for 1 hr while adding an aqueous sodium hydroxide solution as appropriate every 10 min to maintain pH 10. The mixture was adjusted to pH 3.5 with an aqueous hydrochloric acid solution, and the mixture was washed 3 times with hexane to remove fatty acid. The solution was neutralized with an aqueous sodium hydroxide solution, evaporated and filtered to remove sodium chloride. The viscous liquid was diluted with purified water to a concentration of 50% and used as an eye irritancy measurement sample.
Using three male Japanese white rabbits per sample, the above-mentioned eye irritancy measurement sample (0.1 mL) was instilled into the unilateral intracapsular conjunctiva of each test animal, and the upper and lower eyelids were gently closed and maintained for about 1 sec. The other eye was used as control without treatment. After instillation, the cornea, iris, conjunctiva and the like were observed 1, 6, 12 and 24 hr later.

## CCCCCCCC(=O)OCC(COC(=O)CCCCCCC)OC(=O)CCCCCCC [Ex. 1, Glycerol tricaprylic acid ester]
  eye irritancy of hydrolysate: no problem

## CCCCCCCCCCCC(=O)OCC(O)CO (stereo not drawn) [Ex. 7, Glycerol monolauric acid ester]
  eye irritancy of hydrolysate: no problem

## CCCCCCCCC(=O)OCCO [compound 4, ethylene glycol monopelargric acid ester, reference compound]
  eye irritancy of hydrolysate: problematic
